Results published in article PMC2866172 (Journal of medicinal chemistry, 2010).

Tests used:
[1] = Torso PET imaging in anesthetized baboons; conditions: for Calculated drug concentration in heart / Calculated drug concentration in kidney cortex / Calculated drug concentration in kidney medulla / Calculated drug concentration in liver / Calculated drug concentration in lung / Calculated drug concentration in plasma / Calculated drug concentration in gallbladder: 17 kg baboon; for Concentration in heart / Concentration in kidney cortex / Concentration in kidney medulla / Concentration in liver / Concentration in lung / Concentration in plasma / Concentration in gallbladder: baboon, i.v.
[2] = Brain PET imaging in anesthetized baboons; conditions: for Estimated concentration in whole brain, C30min / Concentration in whole brain, C30min: 30 min; for Estimated concentration in whole brain, C30min / Estimated concentration in whole brain, C60min / Estimated concentration in whole brain, C90min: signal assumed intact drug; for Estimated concentration in whole brain, C60min / Concentration in whole brain, C60min: 60 min; for Estimated concentration in whole brain, C90min / Concentration in whole brain, C90min: 90 min; for Concentration in whole brain, C30min / Concentration in whole brain, C60min / Concentration in whole brain, C90min: baboon
[3] = 15 min, calculated assuming 5 mg/kg dose
[4] = 30 min, calculated assuming 5 mg/kg dose
[5] = 60 min, calculated assuming 5 mg/kg dose
[6] = 90 min, calculated assuming 5 mg/kg dose
[7] = estimated from baboon weight, 5 mg/kg dose
[8] = 15 min, calculated assuming 10 mg/kg dose
[9] = 30 min, calculated assuming 10 mg/kg dose
[10] = 60 min, calculated assuming 10 mg/kg dose
[11] = 90 min, calculated assuming 10 mg/kg dose
[12] = estimated for 17 kg baboon, 10 mg/kg dose

In the case of `NN[11C](=O)c1ccncc1` [[^11C]INH], the “Calculated drug concentration in heart” value [1, 3] is reported as “(8.72) µg/ml”, the “Calculated drug concentration in kidney cortex” value [1, 3] is reported as “(15.06) µg/ml” and the “Calculated drug concentration in kidney medulla” value [1, 3] is reported as “(18.94) µg/ml”. For the same compound, the “Calculated drug concentration in liver” value [1, 3] was “(12.50) µg/ml”, the “Calculated drug concentration in lung” value [1, 3] was “(7.72) µg/ml” and the “Calculated drug concentration in plasma” value [1, 3] was “(3.76) µg/ml”. The “Calculated drug concentration in heart” value [1, 4] was “(6.13) µg/ml”, the “Calculated drug concentration in kidney cortex” value [1, 4] was “(9.26) µg/ml” and the “Calculated drug concentration in kidney medulla” value [1, 4] was “(15.43) µg/ml”. The “Calculated drug concentration in liver” value [1, 4] was “(9.71) µg/ml”, the “Calculated drug concentration in lung” value [1, 4] was “(6.09) µg/ml” and the “Calculated drug concentration in plasma” value [1, 4] was “(2.96) µg/ml”. For the same compound, the “Calculated drug concentration in heart” value [1, 5] was “(3.74) µg/ml”, the “Calculated drug concentration in kidney cortex” value [1, 5] was “(7.72) µg/ml” and the “Calculated drug concentration in kidney medulla” value [1, 5] was “(16.37) µg/ml”. The “Calculated drug concentration in liver” value [1, 5] was “(7.64) µg/ml”, the “Calculated drug concentration in lung” value [1, 5] was “(4.42) µg/ml” and the “Calculated drug concentration in plasma” value [1, 5] was “(2.05) µg/ml”. For the same compound, the “Calculated drug concentration in heart” value [1, 6] was “(4.15) µg/ml”, the “Calculated drug concentration in kidney cortex” value [1, 6] was “(8.54) µg/ml” and the “Calculated drug concentration in kidney medulla” value [1, 6] was “(14.69) µg/ml”. The “Calculated drug concentration in liver” value [1, 6] was “(6.91) µg/ml”, the “Calculated drug concentration in lung” value [1, 6] was “(4.19) µg/ml” and the “Calculated drug concentration in plasma” value [1, 6] was “(1.62) µg/ml”. The Concentration in heart ([1]; 15 min after administration) was 0.0103 %ID/cc, the “Concentration in kidney cortex” value ([1]; 15 min after administration) was 0.0177 %ID/cc and the “Concentration in kidney medulla” value ([1]; 15 min after administration) was 0.0223 %ID/cc. It also gave a Concentration in liver ([1]; 15 min after administration) of 0.0147 %ID/cc, a Concentration in lung ([1]; 15 min after administration) of 0.0091 %ID/cc and a Concentration in plasma ([1]; 15 min after administration) of 0.00442 %ID/cc. For the same compound, the Concentration in heart ([1]; 30 min after administration) was 0.0072 %ID/cc, the “Concentration in kidney cortex” value ([1]; 30 min after administration) was 0.0109 %ID/cc and the “Concentration in kidney medulla” value ([1]; 30 min after administration) was 0.0181 %ID/cc. It also gave a Concentration in liver ([1]; 30 min after administration) of 0.0114 %ID/cc, a Concentration in lung ([1]; 30 min after administration) of 0.0072 %ID/cc and a Concentration in plasma ([1]; 30 min after administration) of 0.00348 %ID/cc. The Concentration in heart ([1]; 60 min after administration) was 0.0044 %ID/cc, the “Concentration in kidney cortex” value ([1]; 60 min after administration) was 0.0091 %ID/cc and the “Concentration in kidney medulla” value ([1]; 60 min after administration) was 0.0193 %ID/cc. For the same compound, the Concentration in liver ([1]; 60 min after administration) was 0.0090 %ID/cc, the Concentration in lung ([1]; 60 min after administration) was 0.0052 %ID/cc and the Concentration in plasma ([1]; 60 min after administration) was 0.00241 %ID/cc. The Concentration in heart ([1]; 90 min after administration) was 0.0049 %ID/cc, the “Concentration in kidney cortex” value ([1]; 90 min after administration) was 0.0100 %ID/cc and the “Concentration in kidney medulla” value ([1]; 90 min after administration) was 0.0173 %ID/cc. It also gave a Concentration in liver ([1]; 90 min after administration) of 0.0081 %ID/cc, a Concentration in lung ([1]; 90 min after administration) of 0.0049 %ID/cc and a Concentration in plasma ([1]; 90 min after administration) of 0.0019 %ID/cc. For the same compound, the “Estimated concentration in whole brain, C30min” value [2, 7] was 2.54 µg/mL, the “Estimated concentration in whole brain, C60min” value [2, 7] was 2.11 µg/mL and the “Estimated concentration in whole brain, C90min” value [2, 7] was 1.75 µg/mL. For the same compound, the “Concentration in whole brain, C30min” value ([2]; i.v.) was 0.00299 %ID/cc, the “Concentration in whole brain, C60min” value ([2]; i.v.) was 0.00248 %ID/cc and the “Concentration in whole brain, C90min” value ([2]; i.v.) was 0.00206 %ID/cc. The Blood-brain barrier penetration ([2]; healthy baboons, i.v., TAC, AUC and image) was “higher initial brain penetration and tissue accumulation when compared to RIF”.

With `CO[C@H]1/C=C/O[C@@]2(C)Oc3c(C)c(O)c4cc(c(/C=N/N5CCN([11CH3])CC5)c(O)c4c3C2=O)NC(=O)/C(C)=C\C=C\C(C)[C@H](O)[C@@H](C)[C@@H](O)[C@@H](C)[C@H](OC(C)=O)[C@@H]1C` (stereo partly shown) [[^11C]RIF] the “Calculated drug concentration in gallbladder” value [1, 8] was “(121.40) µg/ml”, the “Calculated drug concentration in heart” value [1, 8] was “(7.28) µg/ml” and the “Calculated drug concentration in kidney cortex” value [1, 8] was “(15.79) µg/ml”. For the same compound, the “Calculated drug concentration in kidney medulla” value [1, 8] was “(36.39) µg/ml”, the “Calculated drug concentration in liver” value [1, 8] was “(258.98) µg/ml” and the “Calculated drug concentration in lung” value [1, 8] was “(5.03) µg/ml”. The “Calculated drug concentration in plasma” value [1, 8] was “(2.81) µg/ml”, the “Calculated drug concentration in gallbladder” value [1, 9] was “(586.34) µg/ml” and the “Calculated drug concentration in heart” value [1, 9] was “(5.28) µg/ml”. For the same compound, the “Calculated drug concentration in kidney cortex” value [1, 9] was “(6.34) µg/ml”, the “Calculated drug concentration in kidney medulla” value [1, 9] was “(11.63) µg/ml” and the “Calculated drug concentration in liver” value [1, 9] was “(276.12) µg/ml”. For the same compound, the “Calculated drug concentration in lung” value [1, 9] was “(2.83) µg/ml”, the “Calculated drug concentration in plasma” value [1, 9] was “(1.50) µg/ml” and the “Calculated drug concentration in gallbladder” value [1, 10] was “(983.24) µg/ml”. For the same compound, the “Calculated drug concentration in heart” value [1, 10] was “(1.93) µg/ml”, the “Calculated drug concentration in kidney cortex” value [1, 10] was “(0.43) µg/ml” and the “Calculated drug concentration in kidney medulla” value [1, 10] was “(6.73) µg/ml”. The “Calculated drug concentration in liver” value [1, 10] was “(288.05) µg/ml”, the “Calculated drug concentration in lung” value [1, 10] was “(2.53) µg/ml” and the “Calculated drug concentration in plasma” value [1, 10] was “(1.14) µg/ml”. For the same compound, the “Calculated drug concentration in gallbladder” value [1, 11] was “(1009.99) µg/ml”, the “Calculated drug concentration in heart” value [1, 11] was “(6.80) µg/ml” and the “Calculated drug concentration in kidney cortex” value [1, 11] was “(8.19) µg/ml”. The “Calculated drug concentration in kidney medulla” value [1, 11] was “(9.44) µg/ml”, the “Calculated drug concentration in liver” value [1, 11] was “(299.73) µg/ml” and the “Calculated drug concentration in plasma” value [1, 11] was “(1.16) µg/ml”. For the same compound, the Concentration in gallbladder ([1]; 15 min after administration) was 0.0714 %ID/cc, the Concentration in heart ([1]; 15 min after administration) was 0.0043 %ID/cc and the “Concentration in kidney cortex” value ([1]; 15 min after administration) was 0.0093 %ID/cc. The “Concentration in kidney medulla” value ([1]; 15 min after administration) was 0.0214 %ID/cc, the Concentration in liver ([1]; 15 min after administration) was 0.1523 %ID/cc and the Concentration in lung ([1]; 15 min after administration) was 0.003 %ID/cc. For the same compound, the Concentration in plasma ([1]; 15 min after administration) was 0.00165 %ID/cc, the Concentration in gallbladder ([1]; 30 min after administration) was 0.3449 %ID/cc and the Concentration in heart ([1]; 30 min after administration) was 0.0031 %ID/cc. The “Concentration in kidney cortex” value ([1]; 30 min after administration) was 0.0037 %ID/cc, the “Concentration in kidney medulla” value ([1]; 30 min after administration) was 0.0068 %ID/cc and the Concentration in liver ([1]; 30 min after administration) was 0.1624 %ID/cc. For the same compound, the Concentration in lung ([1]; 30 min after administration) was 0.0017 %ID/cc, the Concentration in plasma ([1]; 30 min after administration) was 0.00088 %ID/cc and the Concentration in gallbladder ([1]; 60 min after administration) was 0.5784 %ID/cc. The Concentration in heart ([1]; 60 min after administration) was 0.0011 %ID/cc, the “Concentration in kidney cortex” value ([1]; 60 min after administration) was 0.0003 %ID/cc and the “Concentration in kidney medulla” value ([1]; 60 min after administration) was 0.004 %ID/cc. It also gave a Concentration in liver ([1]; 60 min after administration) of 0.1694 %ID/cc, a Concentration in lung ([1]; 60 min after administration) of 0.0015 %ID/cc and a Concentration in plasma ([1]; 60 min after administration) of 0.00067 %ID/cc. The Concentration in gallbladder ([1]; 90 min after administration) was 0.5941 %ID/cc, the Concentration in heart ([1]; 90 min after administration) was 0.004 %ID/cc and the “Concentration in kidney cortex” value ([1]; 90 min after administration) was 0.0048 %ID/cc. The “Concentration in kidney medulla” value ([1]; 90 min after administration) was 0.0056 %ID/cc, the Concentration in liver ([1]; 90 min after administration) was 0.1763 %ID/cc and the Concentration in plasma ([1]; 90 min after administration) was 0.00068 %ID/cc. For the same compound, the “Estimated concentration in whole brain, C30min” value [2, 12] was 1.09 µg/mL, the “Estimated concentration in whole brain, C60min” value [2, 12] was 0.912 µg/mL and the “Estimated concentration in whole brain, C90min” value [2, 12] was 1.21 µg/mL. For the same compound, the “Concentration in whole brain, C30min” value ([2]; i.v.) was 0.000642 %ID/cc, the “Concentration in whole brain, C60min” value ([2]; i.v.) was 0.000536 %ID/cc and the “Concentration in whole brain, C90min” value ([2]; i.v.) was 0.00071 %ID/cc.
